Our source for the remaining activity and IC50 values is patent US20240016777A1, “COMPOUNDS AND METHODS FOR TREATING VIRAL INFECTIONS” (priority 2020, published 2024).

Where two headings read alike, the source gives them in different places.

This assay concerns the target SARS-CoV-2 M^pro (Severe acute respiratory syndrome coronavirus 2 (2019-nCoV) (SARS-CoV-2), UniProt P0DTD1). In words: biochemical.
Setting [1] is: read-out: Activity (% enzyme activity by fluorescence relative to initial enzyme activity), compound at 17 μM, duplicates, 20 min pre-incubation.
Setting [2] is: compound at 17 μM, duplicates, 20 min pre-incubation, read-out: Activity (% enzyme activity by fluorescence relative to initial enzyme activity).

In the case of `CC(C)=CCc1cc(C2CC(=O)c3c(O)cc(O)cc3O2)c(CC=C(C)C)c(O)c1O` (racemic) [(+/−)-Sigmoidin A], under setting [1], the remaining activity at 17 µM fell in the range of 10 to 80%. `COc1ccc2c(c1CC=C(C)C)O[C@H](c1ccc(O)cc1O)CC2` (stereo in doubt) [2′,4′-Dihydroxy-7-methoxy-8-prenylflavan]: the remaining activity at 17 µM under setting [1] was greater than 80%.

For `COc1cc(O)c(CC=C(C)C)c2c1C(=O)[C@H](O)[C@@H](c1ccc(O)cc1)O2` (stereo in doubt) [3,7,4′-Trihydroxy-5-methoxy-8-prenylflavanone], the remaining activity at 17 µM under setting [1] was greater than 80%. In the case of `CC(C)=CCc1c(O)ccc([C@H]2COc3c(CC=C(C)C)c(O)cc(O)c3C2=O)c1O` (stereo in doubt) [5,7,2′,4′-Tetrahydroxy-8,3′-di(gamma,gamma-dimethylallyl)-isoflavanone], the remaining activity at 17 µM under setting [1] was 10 to 80%. For the molecule `COc1ccc([C@@H]2CC(=O)c3c(O)cc(O)c(CC=C(C)C)c3O2)cc1O` (stereo in doubt) [5,7,3′-Trihydroxy-4′-methoxy-8-prenylflavanone], the remaining activity at 17 µM under setting [1] was greater than 80%.

As for `CC(C)=CCc1c(O)cc(O)c2c(=O)c(-c3ccc(O)cc3O)coc12` [2,3-dehydrokievitone], the remaining activity at 17 µM under setting [1] fell in the range of 10 to 80%.

As for `O=c1c(-c2ccc(O)cc2O)coc2cc(O)cc(O)c12` [2′-hydroxygenistein], under setting [1], the remaining activity at 17 µM is greater than 80%. `C=C(C)[C@H](CC=C(C)C)Cc1c(O)cc(OC)c2c1O[C@H](c1ccc(O)cc1OC)CC2=O` [2′-methoxykurarinone]: under setting [1], the remaining activity at 17 µM is greater than 80%. Regarding `COc1ccc(-c2oc3c(CC=C(C)C)c(O)cc(O)c3c(=O)c2O[C@@H]2O[C@@H](C)[C@H](O)[C@@H](O)[C@H]2O[C@@H]2O[C@@H](C)[C@H](O)[C@@H](O)[C@H]2O)cc1` [2″-O-Rhamnosylicariside II], under setting [1], the remaining activity at 17 µM is 10 to 80%.

As to `CC(C)=CCc1cc(-c2coc3cc(O)cc(O)c3c2=O)cc(CC=C(C)C)c1O` [3′,5′-Diprenylgenistein], the remaining activity at 17 µM under setting [1] was greater than 80%. As for `CC(C)=CCC/C(C)=C/Cc1c(O)ccc(-c2oc3cc(O)cc(O)c3c(=O)c2CC=C(C)C)c1O` [3′-Geranyl-3-prenyl-2′,4′,5,7-tetrahydroxyflavone], the remaining activity at 17 µM under setting [1] lay in the range of 10 to 80%. In the case of `CC(C)=CCc1c(O)cc2oc(-c3ccc(O)cc3)cc(=O)c2c1O` [4′,5,7-Trihydroxy-6-prenylflavone], under setting [1], the remaining activity at 17 µM was greater than 80%. `COc1ccc([C@@H]2CC(=O)c3c(O)cc(O)cc3O2)cc1CC=C(C)C` [4′-O-Methyllicoflavanone]: the remaining activity at 17 µM under setting [1] fell in the range of 10 to 80%. For `CC(C)=CCC/C(C)=C/Cc1c(-c2ccc(O)cc2O)oc2cc(O)cc(O)c2c1=O` [5,7,2′,4′-Tetrahydroxy-3-geranylflavone], under setting [2], the remaining activity at 17 µM fell in the range of 10 to 80%. For `COc1c(-c2cc(O)c(O)c(CC=C(C)C)c2)oc2c(CC=C(C)C)c(O)cc(O)c2c1=O` [5,7,3′,4′-Tetrahydroxy-3-methoxy-8,5′-diprenylflavone], the remaining activity at 17 µM under setting [1] is greater than 80%. `COc1c(-c2ccc(O)c(O)c2)oc2c(C/C=C(\C)CCC=C(C)C)c(O)cc(O)c2c1=O` [5,7,3′,4′-Tetrahydroxy-3-methoxy-8-geranylflavone]: the remaining activity at 17 µM under setting [1] is greater than 80%. `COc1c(O)cc2oc(-c3ccc(O)c(CC=C(C)C)c3)c(OC)c(=O)c2c1O` [5,7,4-Trihydroxy-3,6-dimethoxy-3-prenylflavone]: under setting [1], the remaining activity at 17 µM was greater than 80%.

On to `COc1c(O)cc2oc(-c3cc(CC=C(C)C)c(O)c(CC=C(C)C)c3)c(OC)c(=O)c2c1O` [5,7,4′-Trihydroxy-3,6-dimethoxy-3′,5′-diprenylflavone], for which the remaining activity at 17 µM under setting [1] is greater than 80%. Same read-out and setting: with `CC(C)=CCc1cc([C@@H]2CC(=O)c3c(O)cc(O)c(CC=C(C)C)c3O2)cc(CC=C(C)C)c1O` [5-Hydroxysophoranone] the figure was greater than 80%; with `CC(C)=CCC/C(C)=C/Cc1cc(-c2cc(=O)c3c(O)cc(O)cc3o2)c(O)cc1O` [5′-Geranyl-5,7,2′,4′-tetrahydroxyflavone], greater than 80%.

As for `COc1c(O)cc2oc(-c3cc(CC=C(C)C)c(O)c(CCC(C)CO)c3)c(OC)c(=O)c2c1O` (stereo not drawn) [5′-Prenylaliarin], the remaining activity at 17 µM under setting [1] was greater than 80%. On to `CC(C)=CCc1c(O)c(CC=C(C)C)c2occ(-c3ccc(O)cc3)c(=O)c2c1O` [6,8-Diprenylgenistein], for which the remaining activity at 17 µM under setting [1] is 10 to 80%.

For `CC(C)=CCc1c(O)c(CC=C(C)C)c2c(c1O)C(=O)C[C@@H](c1ccc(O)cc1)O2` [6,8-Diprenylnaringenin], the remaining activity at 17 µM under setting [1] was greater than 80%. With `CC(C)=CCc1c(O)c(CC=C(C)C)c2occ(-c3ccc(O)c(O)c3)c(=O)c2c1O` [6,8-Diprenylorobol], the remaining activity at 17 µM under setting [1] is greater than 80%.

As to `CC(C)=CCC/C(C)=C/Cc1c(O)cc2c(c1O)C(=O)C[C@@H](c1ccc(O)cc1)O2` [6-Geranylnaringenin], the remaining activity at 17 µM under setting [1] was greater than 80%.

For the molecule `CC(C)=CCc1c(O)c(C)c(O)c2c1O[C@H](c1ccc(O)cc1)CC2=O` [6-Methyl-8-prenylnaringenin], the remaining activity at 17 µM under setting [1] was less than 10%.

Consider `CC(C)=CCc1c(O)cc2c(c1O)C(=O)C[C@@H](c1ccc(O)cc1)O2` [6-Prenylnaringenin], for which the remaining activity at 17 µM under setting [1] was greater than 80%.

Take `COc1c(-c2ccc(O)c(O)c2)oc2cc(O)c(CC=C(C)C)c(O)c2c1=O` [6-Prenylquercetin-3-methylether]: the remaining activity at 17 µM under setting [1] was greater than 80%. `COc1c(O)cc2oc(-c3ccc(O)c(O)c3)cc(=O)c2c1O` [6-methoxyluteolin]: for the setting “IC50, compounds evaluated at 0.015-300 μM”, half-maximal inhibition (IC50) required 4 µM. Moreover, under setting [1], the remaining activity at 17 µM was 10 to 80%. Consider `CC(C)=CCc1cc(-c2cc(=O)c3c(O)cc(O)c(CC=C(C)C)c3o2)ccc1O` [8,3′-Diprenylapigenin], for which, under setting [1], the remaining activity at 17 µM is less than 10%.

With `C=C(C)C(CC=C(C)C)Cc1c(O)cc(O)c2c(=O)c(O)c(-c3ccc(O)cc3)oc12` (stereo not drawn) [8-Lavandulylkaempferol], the remaining activity at 17 µM under setting [2] was in the range of 10 to 80%.

Consider `CC(C)=CCc1c(O)ccc2c(=O)c(-c3ccc(O)cc3)coc12` [8-Prenyldaidzein], for which the remaining activity at 17 µM under setting [1] was greater than 80%. With `CC(C)=CCc1c(O)cc(O)c2c(=O)c(O)c(-c3ccc(O)cc3)oc12` [8-Prenylkaempferol], under setting [1], the remaining activity at 17 µM was greater than 80%. As to `CC(C)=CCc1c(O)c(CC=C(C)C)c2occ(-c3ccc(O)cc3O)c(=O)c2c1O` [8-Prenylluteone], the remaining activity at 17 µM under setting [1] is greater than 80%. On to `CC(C)=CCc1c(O)cc(O)c2c1O[C@H](c1ccc(O)cc1)CC2=O` [8-Prenylnaringenin], for which, under setting [1], the remaining activity at 17 µM was in the range of 10 to 80%. As to `CC(C)=CCc1cc([C@@H]2CC(=O)c3ccc(O)c(CC=C(C)C)c3O2)cc(CC=C(C)C)c1O` [(−)-Sophoranone], under setting [1], the remaining activity at 17 µM was in the range of 10 to 80%.

With `CC(C)=CCc1c(-c2ccc(O)cc2O)oc2cc(O)cc(O)c2c1=O` [Albanin A], the remaining activity at 17 µM under setting [1] is greater than 80%. On to `CC(C)=CCc1c(O)cc2oc(-c3ccc(O)cc3O)cc(=O)c2c1O` [Artocarpesin], for which, under setting [1], the remaining activity at 17 µM was greater than 80%.

With `COc1cc2oc(-c3ccc(O)cc3O)c(CC=C(C)C)c(=O)c2c(O)c1/C=C/C(C)C` [Artocarpin], the remaining activity at 17 µM under setting [1] was greater than 80%. For `CC(C)=CCc1c(O)c(CC=C(C)C)c2oc3c(c(=O)c2c1O)C(C=C(C)C)Oc1cc(O)c(O)cc1-3` (stereo not drawn) [Artoheterophyllin B], the remaining activity at 17 µM under setting [1] was greater than 80%. For `CC(C)=CCc1c2c(c(O)c3c(=O)c(-c4ccc(O)c(O)c4)coc13)C=CC(C)(C)O2` [Auriculasin], the remaining activity at 17 µM under setting [1] was greater than 80%.
